The test system of one test is MCF7 (breast). The test is described as follows: In vitro cytotoxic activity assay (MTT), MCF7. The format is cell-based. The following applies: Homo sapiens, cells exposed for 96 hours, 50 % inhibition of cell proliferation, read-out: Cytotoxicity activity IC50, MCF7 (breast). The procedure: (§1) Compounds 1-15 were screened for their in vitro cytotoxic activity utilizing a 3-(4,5-dimethyl-thiazol-2-yl)-2,5-diphenyltetrazolium bromide (MTT) assay against selected cancer human cell lines consisting of PC3 (prostate), HCT116 (colon), A375 (melanoma), H1299 (lung), MIAPaCa-2 (pancreas), HL60 (leukemia), MCF7 (breast), MDA-MB-231 (breast) (T. Mosmann, J. Immunol. Meth., 1983, 65, 55-63). The cells were cultured at 37° C. in RMPI1640 medium supplemented with 10% fetal bovine serum, 50 IU/mL penicillin, and 50 μg/mL streptomycin in a 5% CO2 incubator. All cells were sub-cultured 3 times/week by trypsinisation. Viable cells were seeded and allowed to adhere for 12 hours before a test drug was added in 96-well plates at an initial density of 1.0×10^5 cells/mL. Tumor cell lines were separately exposed to various concentrations of the tested compounds followed by incubation at a temperature of 37° C. during 96 hours inside a medium of fresh RMPI 1640. Cells were subsequently incubated at 37° C. using MTT at 0.5 mg/mL during 4 hours. After removal of supernatant, formazan crystals were dissolved in isopropanol and the optical density was measured at 570 nm. CX-4945 was used as a positive control.

The next test relates to MDA-MB-231 (breast). The test is described as follows: In vitro cytotoxic activity assay (MTT), MDA-MB-231. The following applies: Homo sapiens, cells exposed for 96 hours, 50 % inhibition of cell proliferation, read-out: Cytotoxicity activity IC50, MDA-MB-231 (breast). The format is cell-based. The procedure: as §1
The test system of another test is H1299 (lung). The test is described as follows: In vitro cytotoxic activity assay (MTT), H1299. The format is cell-based. As to conditions: Homo sapiens, NCI-H1299; cells exposed for 96 hours; 50 % inhibition of cell proliferation; read-out: Cytotoxicity activity IC50, H1299 (lung). The procedure: as §1
Another test concerns HL60 (leukemia). Nature of the test: In vitro cytotoxic activity assay (MTT), HL60. The format is cell-based. As to conditions: Homo sapiens, HL-60; cells exposed for 96 hours; 50 % inhibition of cell proliferation; read-out: Cytotoxicity activity IC50, HL60 (leukemia). The procedure:
as §1

The next test relates to MIAPaCa-2 (pancreas). The test is described as follows: In vitro cytotoxic activity assay (MTT), MIAPaCa-2. It counts as cell-based. The following applies: Homo sapiens, MIA PaCa-2; cells exposed for 96 hours; 50 % inhibition of cell proliferation; read-out: Cytotoxicity activity IC50, MIAPaCa-2 (pancreas). The procedure: as §1
In the next test the test system is PC3 (prostate). The test is described as follows: In vitro cytotoxic activity assay (MTT), PC3. The format is cell-based. As to conditions: Homo sapiens; cells exposed for 96 hours; 50 % inhibition of cell proliferation; read-out: Cytotoxicity activity IC50, PC3 (prostate). The procedure: as §1
For another test, the system named is A375 (melanoma). The test is described as follows: In vitro cytotoxic activity assay (MTT), A375. It counts as cell-based. The following applies: Homo sapiens, A-375; cells exposed for 96 hours; 50 % inhibition of cell proliferation; read-out: Cytotoxicity activity IC50, A375 (melanoma). The procedure:
as §1

The test system of a further test is HCT116 (colon). The test is described as follows: In vitro cytotoxic activity assay (MTT), HCT116. The following applies: Homo sapiens, HCT-116; cells exposed for 96 hours; 50 % inhibition of cell proliferation; read-out: Cytotoxicity activity IC50, HCT116 (colon). The format is cell-based. The procedure: as §1
Test [1] concerns the target T1, recombinant human CK2 (RRββ-holoenzyme) (Homo sapiens, UniProt P68400).
T1 construct: purchased Millipore
The test is described as follows: CK2 Kinase Assay. It counts as biochemical. As to conditions: final ATP concentration 15 μM; 10 min at 30° C.; read-out: protein kinase CK2 inhibition IC50. The procedure:
CK2 Kinase Assay was conducted using the protocol as described in Pierre F. et al; J. Med. Chem. 2011, 54, 635-654. The tested compounds in aqueous solution were added at a volume of 10 μL to a reaction mixture comprising 10 μL of assay dilution buffer (ADB; 20 mM MOPS, pH 7.2, 25 mM β-glycerol phosphate, 5 mM EGTA, 1 mM sodium orthovanadate, and 1 mM dithiothreitol), 10 μL of substrate peptide (RRRDDDSDDD, dissolved in ADB at a concentration of 1 mM), 10 μL of recombinant human CK2 (RRββ-holoenzyme, 25 ng dissolved in ADB; Millipore). Reactions were initiated by the addition of 10 μL of ATP solution (90% 75 mMMgCl2, 75 μM ATP (final ATP concentration: 15 μM) dissolved in ADB; 10% [γ-33P] ATP (stock 1 mCi/100 μL; 3000 Ci/mmol (Perkin-Elmer) and maintained for 10 min at 30° C. The reactions were quenched with 100 μL of 0.75% phosphoric acid and then transferred to and filtered through a phosphor cellulose filter plate (Millipore). After washing each well five times with 0.75% phosphoric acid, the plate was dried under vacuum for 5 min and, following the addition of 15 μL of scintillation fluid to each well, the residual radioactivity was measured using a Wallac […] counter. The IC50 values were derived from eight concentrations of test inhibitors.

T1 sequence (P68400 whole entry): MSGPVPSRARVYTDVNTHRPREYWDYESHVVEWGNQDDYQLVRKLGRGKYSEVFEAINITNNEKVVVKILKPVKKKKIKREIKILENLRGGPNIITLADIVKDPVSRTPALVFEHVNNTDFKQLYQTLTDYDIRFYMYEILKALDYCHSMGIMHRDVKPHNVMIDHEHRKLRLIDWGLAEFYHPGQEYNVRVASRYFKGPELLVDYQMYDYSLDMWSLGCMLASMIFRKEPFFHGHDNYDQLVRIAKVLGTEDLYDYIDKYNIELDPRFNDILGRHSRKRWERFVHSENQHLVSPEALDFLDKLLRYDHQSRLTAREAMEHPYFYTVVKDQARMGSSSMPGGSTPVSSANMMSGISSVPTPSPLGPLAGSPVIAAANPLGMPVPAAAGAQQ
T1 sequence (P67870 whole entry partner): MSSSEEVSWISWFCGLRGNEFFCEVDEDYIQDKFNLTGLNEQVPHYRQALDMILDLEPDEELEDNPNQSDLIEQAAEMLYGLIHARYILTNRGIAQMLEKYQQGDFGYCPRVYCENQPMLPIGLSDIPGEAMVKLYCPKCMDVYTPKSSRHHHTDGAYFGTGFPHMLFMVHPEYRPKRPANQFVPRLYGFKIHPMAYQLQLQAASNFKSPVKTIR

Regarding `O=C(O)c1cc2c(nc(Nc3cccc(Cl)c3)c3ccncc32)[nH]1` [Compound 1, 5-((3-chlorophenyl)amino)-7H-pyrrolo[2,3-c][2,6]naphthyridine-8-carboxylic Acid], the concentration for half-maximal inhibition (IC50) in the test with MCF7 (breast) stood at 3500 nM; with MDA-MB-231 (breast), 3800 nM; in the test on H1299 (lung), 1300 nM; in the test with HL60 (leukemia), 2200 nM; in the test with MIAPaCa-2 (pancreas) it was 900 nM; in the test with PC3 (prostate), 2100 nM. Also, the IC50 in the test with A375 (melanoma) was 2900 nM; with HCT116 (colon), 1000 nM; in [1], 8 nM.

The record behind these values is US12129252B1, “Pyrrolo[2,3-c][2,6]naphthyridine-8-carboxylic acids as CK2 inhibitors” (KING FAISAL UNIVERSITY, priority 2024, dated 2024).
